According to patent US8247211B2, “Glycopeptide antibiotics” (American Cyanamid Company, priority 2001, dated 2012):
≈ marks a conversion by molar mass, not a printed value.

Assays:
Assay in all cases: In vitro antibacterial evaluation: minimum inhibitory concentration (MIC), broth dilution method
Format in all cases: cell-based
[1] = tested on: Enterococcus sp.; conditions: 18 hours at 35° C.
Method: (§1) The minimum inhibitory concentration (MIC), the lowest concentration of the antibiotic which inhibits growth of the test organism, is determined by the broth dilution method using Muller-Hinton II […] (Baltimore Biological Laboratories) following the recommendations of the National Committee for Clinical Laboratory Standards [Methods for dilution antimicrobial susceptibility tests for bacteria that grow aerobically, approved standard M7-A2, National Committee for Clinical Laboratory Standards, Villanova, Pa].
(§2) An inoculum level of 5×10^5 CFU/mL, and a range of antibiotic concentrations (64-0.06 μg/mL) is used. […] The test organisms include a spectrum of Gram-positive bacteria comprised of Staphylococcus sp., Streptococcus sp. and Enterococcus sp. These organisms include recent clinical isolates that are resistant to methicillin, penicillin and/or vancomycin.

[2] = tested on: Escherichia coli; conditions: 18 hours at 35° C.
Method: as §1, §2

[3] = tested on: Streptococcus sp.; conditions: 18 hours at 35° C.
Method: as §1, §2

[4] = tested on: Staphylococcus sp.
Method: as §1, §2

[5] = broth dilution, inoculum 5×10^5 CFU/mL

Structure (SMILES): CC(c1ccccc1)C1NC(=O)CNC(=O)C(CO)NC(=O)C(C(O)C2CNC(=N)N2C2OC(CO)C(O)C(O)C2O)NC(=O)C(C(O)C2CNC(=N)N2)NC(=O)C(Cc2ccc(OC3OC(CO)C(OC4OC5COC6(CCSCC6)OC5C(O)C4O)C(O)C3O)cc2)NC1=O (stereo not drawn) [Example 217, Cyclo[glycyl-β-methylphenylalanyl-O-[4-O-[4,6-O-(tetrahydrothiopyran-4-ylidene)hexopyranosyl]hexopyranosyl]tyrosyl-3-(2-iminoimidazolidin-4-yl)seryl-3-(3-hexopyranosyl-2-iminoimidazolidin-4-yl)serylseryl]]
- MIC Enterococcus avium (GC 4558) ([1]; Enterococcus avium (GC 4558)): 16 µg/mL (≈ 11.5 µM)
- MIC Enterococcus faecalis (ATCC 29212) ([1]; Enterococcus faecalis (ATCC 29212)): 16 µg/mL (≈ 11.5 µM)
- MIC Enterococcus faecalis (GC 2242) ([1]; Enterococcus faecalis (GC 2242)): 16 µg/mL (≈ 11.5 µM)
- MIC Enterococcus faecalis (GC 2691) ([1]; Enterococcus faecalis (GC 2691)): 16 µg/mL (≈ 11.5 µM)
- MIC Enterococcus faecalis (GC 3059) ([1]; Enterococcus faecalis (GC 3059)): 32 µg/mL (≈ 23 µM)
- MIC Enterococcus faecalis (GC 4552) ([1]; Enterococcus faecalis (GC 4552)): 16 µg/mL (≈ 11.5 µM)
- MIC Enterococcus faecalis (GC 4553) ([1]; Enterococcus faecalis (GC 4553)): 32 µg/mL (≈ 23 µM)
- MIC Enterococcus faecalis (GC 4554) ([1]; Enterococcus faecalis (GC 4554)): 32 µg/mL (≈ 23 µM)
- MIC Enterococcus faecalis (GC 6189) ([1]; Enterococcus faecalis (GC 6189)): 16 µg/mL (≈ 11.5 µM)
- MIC Enterococcus faecium (GC 2243) ([1]; Enterococcus faecium (GC 2243)): 16 µg/mL (≈ 11.5 µM)
- MIC Enterococcus faecium (GC 4556) ([1]; Enterococcus faecium (GC 4556)): 16 µg/mL (≈ 11.5 µM)
- MIC Enterococcus faecium (GC 4557) ([1]; Enterococcus faecium (GC 4557)): 8 µg/mL (≈ 5.74 µM)
- MIC Enterococcus avium (GC 4558) [1, 5]: 16 µg/mL (≈ 11.5 µM)
- MIC Enterococcus faecalis (ATCC 29212) [1, 5]: 16 µg/mL (≈ 11.5 µM)
- MIC Enterococcus faecalis (GC 2242) [1, 5]: 16 µg/mL (≈ 11.5 µM)
- MIC Enterococcus faecalis (GC 2691) [1, 5]: 16 µg/mL (≈ 11.5 µM)
- MIC Enterococcus faecalis (GC 3059) [1, 5]: 32 µg/mL (≈ 23 µM)
- MIC Enterococcus faecalis (GC 4552) [1, 5]: 16 µg/mL (≈ 11.5 µM)
- MIC Enterococcus faecalis (GC 4553) [1, 5]: 32 µg/mL (≈ 23 µM)
- MIC Enterococcus faecalis (GC 4554) [1, 5]: 32 µg/mL (≈ 23 µM)
- MIC Enterococcus faecalis (GC 6189) [1, 5]: 16 µg/mL (≈ 11.5 µM)
- MIC Enterococcus faecium (GC 2243) [1, 5]: 16 µg/mL (≈ 11.5 µM)
- MIC Enterococcus faecium (GC 4556) [1, 5]: 16 µg/mL (≈ 11.5 µM)
- MIC Enterococcus faecium (GC 4557) [1, 5]: 8 µg/mL (≈ 5.74 µM)
- MIC Escherichia coli (ATCC 25922) ([2]; Escherichia coli (ATCC 25922)): 64 µg/mL (≈ 45.9 µM)
- MIC Escherichia coli (GC 4559) ([2]; Escherichia coli (GC 4559)): 32 µg/mL (≈ 23 µM)
- MIC Escherichia coli (GC 4560) ([2]; Escherichia coli (GC 4560)): 2 µg/mL (≈ 1.44 µM)
- MIC Streptococcus agalactiae (GC 4564) ([3]; Streptococcus agalactiae (GC 4564)): 2 µg/mL (≈ 1.44 µM)
- MIC Streptococcus pneumoniae (ATCC 6301) ([3]; Streptococcus pneumoniae (ATCC 6301)): 1 µg/mL (≈ 0.718 µM)
- MIC Streptococcus pneumoniae (GC 1894) ([3]; Streptococcus pneumoniae (GC 1894)): 0.25 µg/mL (≈ 0.179 µM)
- MIC Streptococcus pneumoniae (GC 4565) ([3]; Streptococcus pneumoniae (GC 4565)): 0.5 µg/mL (≈ 0.359 µM)
- MIC Streptococcus pyogenes (GC 4563) ([3]; Streptococcus pyogenes (GC 4563)): 1 µg/mL (≈ 0.718 µM)
- MIC Streptococcus agalactiae (GC 4564) [3, 5]: 2 µg/mL (≈ 1.44 µM)
- MIC Streptococcus pneumoniae (ATCC 6301) [3, 5]: 1 µg/mL (≈ 0.718 µM)
- MIC Streptococcus pneumoniae (GC 1894) [3, 5]: 0.25 µg/mL (≈ 0.179 µM)
- MIC Streptococcus pneumoniae (GC 4565) [3, 5]: 0.5 µg/mL (≈ 0.359 µM)
- MIC Streptococcus pyogenes (GC 4563) [3, 5]: 1 µg/mL (≈ 0.718 µM)
- MIC Staphylococcus aureus (ATCC 29213) ([4]; strain ATCC 29213): 4 µg/mL (≈ 2.87 µM)
- MIC Staphylococcus aureus (GC 1131) ([4]; strain GC 1131): 4 µg/mL (≈ 2.87 µM)
- MIC Staphylococcus aureus (GC 3051) ([4]; strain GC 3051): 4 µg/mL (≈ 2.87 µM)
- MIC Staphylococcus aureus (GC 3053) ([4]; strain GC 3053): 8 µg/mL (≈ 5.74 µM)
- MIC Staphylococcus aureus (GC 4541) ([4]; strain GC 4541): 4 µg/mL (≈ 2.87 µM)
- MIC Staphylococcus aureus (GC 4542) ([4]; strain GC 4542): 4 µg/mL (≈ 2.87 µM)
- MIC Staphylococcus aureus-SMITH (GC 4543) ([4]; strain GC 4543): 2 µg/mL (≈ 1.44 µM)
- MIC Staphylococcus aureus (GC 4544) ([4]; strain GC 4544): 8 µg/mL (≈ 5.74 µM)
- MIC Staphylococcus aureus (GC 4545) ([4]; strain GC 4545): 4 µg/mL (≈ 2.87 µM)
- MIC Staphylococcus haemolyticus (GC 4546) ([4]; strain GC 4546): 2 µg/mL (≈ 1.44 µM)
- MIC Coagulase Negative Staphylococcus (GC 4547) ([4]; strain GC 4547): 4 µg/mL (≈ 2.87 µM)
- MIC Coagulase Negative Staphylococcus (GC 4548) ([4]; strain GC 4548): 1 µg/mL (≈ 0.718 µM)
- MIC Coagulase Negative Staphylococcus (GC 4549) ([4]; strain GC 4549): 2 µg/mL (≈ 1.44 µM)
- MIC Coagulase Negative Staphylococcus (GC 4551) ([4]; strain GC 4551): 8 µg/mL (≈ 5.74 µM)
